pIC50: −log10 of the molar value. Where a name gives a salt, the structure may show the parent alone.
What was measured:
L1210 murine leukaemia = experiment: In vitro cytotoxicity, L1210 murine leukaemia (Microculture Tetrazolium Assay); format: cell-based; conditions: Mus musculus; L1210, 48 hours exposure (4 doubling periods); read-out: IC50, concentration of cytotoxic agent that inhibits the proliferation of the treated cells by 50%
Procedure: (§1) L1210 murine leukaemia was used in vitro. The cells are cultured in RPMI 1640 complete culture medium containing 10% foetal calf serum, 2 mM glutamine, 50 units/ml of penicillin, 50 μg/ml of streptomycin and 10 mM Hepes, pH=7.4. The cells are distributed on microplates and are exposed to the cytotoxic compounds for 4 doubling periods, or 48 hours. The number of viable cells is then quantified by a colorimetric assay, the Microculture Tetrazolium Assay (J. Carmichael et al., Cancer Res.; 47, 939-942 (1987)). The results are expressed as the IC50, the concentration of cytotoxic agent that inhibits the proliferation of the treated cells by 50%.

[1] = system: KB-3-1 epidermoid carcinoma; experiment: In vitro cytotoxicity, human solid tumour cell line KB-3-1; format: cell-based; conditions: 96 h, incubation 4 days
Procedure: as §1
(§2) The compounds of the invention were also tested on human cell lines originating from solid tumours, in accordance with the same test protocol as that described for L1210 murine leukaemia but with incubation periods of 4 days instead of 2 days.

DU145 prostate carcinoma = experiment: In vitro cytotoxicity, human solid tumour cell line DU145; format: cell-based; conditions: DU-145, 96 h, incubation 4 days
Procedure: as §1, §2

[2] = system: A549 non-small-cell lung carcinoma; experiment: In vitro cytotoxicity, human solid tumour cell line A549; format: cell-based; conditions: 96 h, incubation 4 days
Procedure: as §1, §2

HT-29 colon carcinoma = experiment: In vitro cytotoxicity, human solid tumour cell line HT-29; format: cell-based; conditions: 96 h, incubation 4 days
Procedure: as §1, §2

Row | melting point | SMILES | further results
1 | 216 °C | CN(C)CCn1c(=O)c2c3cc(OCCO)ccc3c3[nH]c4ccccc4oc3c2c1=O [Example 6, 2-[2-(Dimethylamino)ethyl]-5-(2-hydroxyethoxy)benzo-[a]pyrrolo[3,4-c]phenoxazine-1,3-dione] | 
2 | 202 °C | CN(C)CCn1c(=O)c2c3cc(OCCO)ccc3c3c(oc4ccccc4n3C=O)c2c1=O [Example 7, 8-(Formyl)-2-[2-(dimethylamino)ethyl]-5-(2-hydroxyethoxy)-benzo[a]pyrrolo[3,4-c]phenoxazine-1,3-dione] | 
3 |  | CN(C)CCn1c(=O)c2c3cc(O)ccc3c3[nH]c4ccccc4oc3c2c1=O [Example 2, 2-[2-(Dimethylamino)ethyl]-5-hydroxybenzo[a]pyrrolo[3,4-c]phenoxazine-1,3-dione hydrochloride] | pIC50 (L1210 murine leukaemia): 6.60; pIC50 [1]: 6.59; pIC50 (DU145 prostate carcinoma): 6.57; pIC50 [2]: 6.80; pIC50 (HT-29 colon carcinoma): 6.22
4 | 250 °C | Cn1c(=O)c2c3cc(OCCO)ccc3c3c(oc4cccnc4n3C(=O)Oc3ccccc3)c2c1=O [Example 8, 8-(Phenoxycarbonyl)-5-(2-hydroxyethoxy)-2-methyl-2,3-dihydrobenzo[e]pyrido[2′,3′:5,6][1,4]oxazino[3,2-g]isoindole-1,3-dione] | 

Row | SMILES | melting point | further results
5 | CN(C)CCn1c(=O)c2c3cc(O)ccc3c3c(oc4ccccc4n3C(=O)OC(C)(C)C)c2c1=O [Example 1, 8-(tert-Butoxycarbonyl)-2-[2-(dimethylamino)ethyl]-5-hydroxy-2,3-dihydrobenzo[a]pyrrolo[3,4-c]phenoxazine-1,3-dione] | 190 °C (dec.) | 
6 | CN(C)CCn1c(=O)c2c3cc(OCCO)ccc3c3c(oc4ccccc4n3C(=O)OC(C)(C)C)c2c1=O [Example 3, 8-(tert-Butoxycarbonyl)-2-[2-(dimethylamino)ethyl]-5-(2-hydroxy-ethoxy)-2,3-dihydrobenzo[a]pyrrolo [3,4-c]phenoxazine-1,3-dione] | > 80 °C (dec.) | 

From US7312213B2, “Substituted benzo[e][1,4]oxazino[3,2-g]isoindole compounds” (Les Laboratories Servier, priority 2002, dated 2007)
